Reference: US7652022B2, “Diaryl urea derivatives useful for the treatment of protein kinase dependent diseases” (Novartis AG, priority 2002, dated 2010)

system: not given; assay: not given; conditions: not given

melting point [°C]	Structure (SMILES)
171 to 172.5	O=C(Nc1cccc(C(F)(F)F)c1)N1CCc2cc(Oc3ccncc3)ccc21 [Example 19, 5(4-pyridyloxy)-N-(3-trifluoromethyl-phenyl)amino-carbonyl-2,3-dihydroindole]
185.5 to 188	O=C(Nc1cccc(C(F)(F)F)c1)N1CCCc2cc(Oc3ccncc3)ccc21 [Example 20]
187.4 to 189.7	O=C(Nc1ccc(Oc2cc(Cl)ncn2)cc1)Nc1cccc(C(F)(F)F)c1 [Example 21, N-(4-(6-Chloropyrimidin-4-yl)-oxyphenyl)-N′-(3-trifluoromethylphenyl)-urea]

biological target: T1, cytoplasmic kinase domain of human Flt-3 (Homo sapiens, UniProt P36888); assay: Flt3 kinase inhibition, GST-Flt-3 filter binding assay; type: biochemical; conditions: % inhibition at 10 μM
T1 construct: amino acids 563-993 of the cytoplasmic kinase domain of human Flt-3; made in house; host or cells: Sf9 insect cells (baculovirus, donor vector pFbacG01)
T1 sequence (P36888 563-993): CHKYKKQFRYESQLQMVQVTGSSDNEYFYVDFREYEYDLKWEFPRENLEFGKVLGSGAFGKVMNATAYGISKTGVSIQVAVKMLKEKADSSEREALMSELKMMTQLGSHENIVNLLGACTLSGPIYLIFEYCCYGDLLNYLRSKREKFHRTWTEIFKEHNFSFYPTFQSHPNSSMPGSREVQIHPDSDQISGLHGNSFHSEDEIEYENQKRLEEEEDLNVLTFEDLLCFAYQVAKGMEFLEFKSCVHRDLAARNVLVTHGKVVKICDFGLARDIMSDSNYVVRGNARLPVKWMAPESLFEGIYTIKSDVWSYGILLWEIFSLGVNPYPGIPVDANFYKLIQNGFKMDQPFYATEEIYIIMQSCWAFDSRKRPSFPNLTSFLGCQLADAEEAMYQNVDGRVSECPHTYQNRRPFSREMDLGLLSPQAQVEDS
Method: Flt3 kinase inhibition is determined as follows: The baculovirus donor vector pFbacG01 (GIBCO) is used to generate a recombinant baculovirus expressing the amino acid region amino acids 563-993 of the cytoplasmic kinase domain of human Flt-3. The coding sequence for the cytoplasmic domain of Flt-3 is amplified by PCR from human c-DNA libraries (Clontech). The amplified DNA fragments and the pFbacG01 vector are made compatible for ligation by digestion with BamH1 and HindIII. Ligation of these DNA fragments results in the baculovirus donor plasmid Flt-3(1.1). The production of the viruses, the expression of proteins in Sf9 cells and the purification of the GST-fused proteins are performed as follows:
Production of virus: Transfer vector (pFbacG01-Flt-3) containing the Flt-3 kinase domain is transfected into the DH10Bac cell line (GIBCO) and the transfected cells are plated on selective agar plates. Colonies without insertion of the fusion sequence into the viral genome (carried by the bacteria) are blue. Single white colonies are picked and viral DNA (bacmid) is isolated from the bacteria by standard plasmid purification procedures. Sf9 or Sf21 cells (American Type Culture Collection) are then transfected in flasks with the viral DNA using Cellfectin reagent. Determination of small scale protein expression in Sf9 cells: Virus containing media is collected from the transfected cell culture and used for infection to increase its titre. Virus containing media obtained after two rounds of infection is used for large-scale protein expression. For large-scale protein expression 100 cm^2 round tissue culture plates are seeded with 5×10^7 cells/plate and infected with 1 mL of virus-containing media (approx. 5 MOIs). After 3 days the cells are scraped off the plate and centrifuged at 500 rpm for 5 min. Cell pellets from 10-20, 100 cm^2 plates, are resuspended in 50 mL of ice-cold lysis buffer (25 mMTris-HCl, pH 7.5, 2 mM EDTA, 1% NP-40, 1 mM DTT, 1 mM PMSF). The cells are stirred on ice for 15 min and then centrifuged at 5000 rpms for 20 min. Purification of GST-tagged proteins: The centrifuged cell lysate is loaded onto a 2 mL glutathione-sepharose column (Pharmacia) and washed three times with 10 mL of 25 mM Tris-HCl, pH 7.5, 2 mM EDTA, 1 mM DTT, 200 mM NaCl. The GST-tagged protein is then eluted by 10 applications (1 mL each) of 25 mM Tris-HCl, pH 7.5, 10 mM reduced-glutathione, 100 mM NaCl, 1 mM DTT, 10% Glycerol and stored at −70° C. Measurement of enzyme activity: Tyrosine protein kinase assays with purified GST-Flt-3 are carried out in a final volume of 30 μL containing 200-1800 ng of enzyme protein (depending on the specific activity), 20 mM Tris-HCl, pH 7.6, 3 mM MnCl2, 3 mM MgCl2, 1 mM DTT, 10 μM Na3VO4, 3 μg/mL poly(Glu,Tyr) 4:1, 1% DMSO, 8.0 μM ATP and 0.1 μCi [γ^33 P] ATP). The activity is assayed in the presence or absence of inhibitors, by measuring the incorporation of ^33P from [γ^33P] ATP into the poly(Glu,Tyr) substrate. The assay (30 μL) is carried out in 96-well plates at ambient temperature for 20 min under conditions described below and terminated by the addition of 20 μL of 125 mM EDTA. Subsequently, 40 μL of the reaction mixture is transferred onto Immobilon-PVDF membrane (Millipore, Bedford, Mass., USA) previously soaked for 5 min with methanol, rinsed with water, then soaked for 5 min with 0.5% H3PO4 and mounted on vacuum manifold with disconnected vacuum source. After spotting all samples, vacuum is connected and each well rinsed with 200 μL 0.5% H3PO4. Membranes are removed and washed 4× on a shaker with 1.0% H3PO4, once with ethanol. Membranes are counted after drying at ambient temperature, mounting in Packard TopCount 96-well frame, and addition of 10 μL/well of Microscint™ (Packard). IC50 values are calculated by linear regression analysis of the percentage inhibition of each compound in duplicate, at four concentrations (usually 0.01, 0.1,1 and 10 μM). […]

Structure (SMILES)	Flt3 (% at 10 μM) [%]
Cc1ccc(NC(=O)Nc2ccc(Oc3ccncc3)cc2)cc1 [Example 4]	98
CCc1ccc(NC(=O)N(C)c2ccc(Oc3ccncc3)cc2)cc1 [Example 5]	64
CN(C(=O)Nc1cccc(C(F)(F)F)c1)c1ccc(Oc2ccncc2)cc1 [Example 6]	87
CCCc1ccc(NC(=O)N(C)c2ccc(Oc3ccncc3)cc2)cc1 [Example 7]	67
Cc1ccc(NC(=O)N(C)c2ccc(Oc3ccncc3)cc2)cc1 [Example 8]	57
O=C(Nc1ccc(Oc2ccncc2)cc1)Nc1ccc(Br)c(C(F)(F)F)c1 [Example 9]	90
O=C(Nc1ccc(Oc2ccncc2)cc1)Nc1ccc(OCC(F)(F)F)c(C(F)(F)F)c1 [Example 10]	100
COc1cc(NC(=O)Nc2ccc(Oc3ccncc3)cc2)cc(C(F)(F)F)c1 [Example 11]	100
CCCc1ccc(NC(=O)Nc2ccc(Cc3ccncc3)cc2)cc1 [Example 12]	92

More lines, now with the values ahead:

Flt3 (% at 10 μM) [%]	Structure (SMILES)
95	CCc1ccc(NC(=O)Nc2ccc(Cc3ccncc3)cc2)cc1 [Example 13]
89	Cc1ccc(NC(=O)Nc2ccc(Cc3ccncc3)cc2)cc1 [Example 14]
96	O=C(Nc1ccc(Cc2ccncc2)cc1)Nc1cccc(C(F)(F)F)c1 [Example 15]
94	CCc1ccc(NC(=O)Cc2ccc(Oc3ccncc3)cc2)cc1 [Example 16, N-(4-pyridin-4-yl-oxy-phenyl)acetyl-(4-ethyl-phenyl)-amide]
92	Cc1ccc(NC(=O)Cc2ccc(Oc3ccncc3)cc2)cc1 [Example 17]
88	CCCc1ccc(NC(=O)Cc2ccc(Oc3ccncc3)cc2)cc1 [Example 18]
63	O=C(Nc1cccc(C(F)(F)F)c1)N1CCc2cc(Oc3ccncc3)ccc21 [Example 19, 5(4-pyridyloxy)-N-(3-trifluoromethyl-phenyl)amino-carbonyl-2,3-dihydroindole]
69	O=C(Nc1cccc(C(F)(F)F)c1)N1CCCc2cc(Oc3ccncc3)ccc21 [Example 20]
94	O=C(Nc1ccc(Oc2cc(Cl)ncn2)cc1)Nc1cccc(C(F)(F)F)c1 [Example 21, N-(4-(6-Chloropyrimidin-4-yl)-oxyphenyl)-N′-(3-trifluoromethylphenyl)-urea]
100	Cc1cc(Oc2ccc(NC(=O)Nc3cccc(C(F)(F)F)c3)cc2)ccn1 [Example 30]
100	O=C(Nc1ccc(Oc2cc(Nc3ccc(O)cc3)ncn2)cc1)Nc1ccc(OCC(F)(F)F)c(C(F)(F)F)c1 [Example 32]
